Columns and labels:
Src protein substrates [1] = assay: Src substrate phosphorylation in c-Src transformed NIH3T3 cells; type: cell-based; conditions: c-Src (527F, constitutively active and transforming) transformed NIH3T3 cells
Description: (§1) Compounds of the invention or salts thereof may be Src signaling inhibitors that bind in the Src peptide substrate site. The activity of various compounds of the invention and salts has been studied in c-Src ([…], constitutively active and transforming) transformed NIH3T3 cells and in human colon cancer cells (HT29).

Src protein substrates [2] = assay: Src substrate phosphorylation in human colon cancer cells (HT29); type: cell-based
Description: as §1

[3] = Moisture-sorption analysis (Hiden IGAsorp); type: physicochemical; conditions: 90% RH, 25° C.; listed as Free base
Protocol: Moisture-sorption experiments were performed using a Hiden IGAsorp Moisture Sorption instrument on KX2-391.MSA obtained in accordance with the process of the present invention (Example 4). First, the sample was dried at 0% Relative Humidity (RH) and 25° C. until an equilibrium weight was reached or for a maximum of four hours. The sample was then subjected to an isothermal (25° C.) adsorption scan from 10 to 90% RH in steps of 10%. The sample was allowed to equilibrate to an asymptotic weight at each point for a maximum of four hours. Following adsorption, a desorption scan from 85 to 0% RH (at 25° C.) was run in steps of −10% again allowing a maximum of four hours for equilibration to an asymptotic weight. The sample was then dried for one hour at 80° C. and the resulting solid analyzed by XRPD. […] FIG. 10 depicts percent change of water content as a function of relative humidity for KX2-391.MSA, Form A.
Moisture-sorption experiments were performed using a Hiden IGAsorp Moisture Sorption Instrument on KX2-391.2HCl obtained in accordance with the process of the present invention (Example 3). First, the sample was dried at 0% Relative Humidity (RH) and 25° C. until an equilibrium weight was reached or for a maximum of four hours. The sample was then subjected to an isothermal (25° C.) adsorption scan from 10 to 90% RH in steps of 10%. The sample was allowed to equilibrate to an asymptotic weight at each point for a maximum of four hours. Following adsorption, a desorption scan from 85 to 0% RH (at 25° C.) was run in steps of −10% again allowing a maximum of four hours for equilibration to an asymptotic weight. The sample was then dried for one hour at 80° C. and the resulting solid analyzed by XRPD.

Moisture Sorption Wt % Water @ 90% RH [3]: 3.7 wt %
SMILES: O=C(Cc1ccc(-c2ccc(OCCN3CCOCC3)cc2)cn1)NCc1ccccc1 [KX2-391, 2-(5-(4-(2-morpholinoethoxy)phenyl)pyridin-2-yl)-N-benzylacetamide]
phosphorylation level of known Src protein substrates (Src protein substrates [1]): reduce the phosphorylation level of known Src protein substrates in a dose-dependent fashion | phosphorylation level of known Src protein substrates (Src protein substrates [2]): reduce the phosphorylation level of known Src protein substrates in a dose-dependent fashion

— patent US10323001B2, “Compositions for modulating a kinase cascade and methods of use thereof” (Athenex, Inc., priority 2006, dated 2019)
